Values of other authors in patent US8047146B2, “Subsurface soil injection apparatus and method” (priority 2001, dated 2011).
Values after ≈ are worked out from the molar mass of the structure shown.

Columns and labels:
[1] = rapidly photodegrades in light

CI [Iodomethane, iodomethane]
lifetime in the atmosphere [1]: 1.5 to 4 days | solubility in water: 14.2 mg/mL (≈ 100 mM)
